Data from patent publication US8859596B2, “Compounds as cannabinoid receptor ligands” (priority 2008, dated 2014).

Experiments:
rat = rat formalin model; cited from earlier work
[1] = tested on: β-amyloid-induced microglial activation; details: in vitro; cited from earlier work
[2] = acute thermal, persistent, inflammatory, neuropathic pain models; cited from earlier work
mice = details: cited from earlier work
[3] = neuropathic, incisional, chronic and acute inflammatory pain; cited from earlier work
[4] = tested on: apolipoprotein E knockout mice; details: low doses; cited from earlier work
human CB2 receptors = human CB2 receptors (Homo sapiens (Human), UniProt P34972); assay: human CB2 radioligand binding assay ([3H]CP 55,940 competition); details: HEK293 membranes, 0.5 nM [3H]CP 55,940; read-out: human CB2 (Ki)
Sequence of human CB2 receptors (P34972 whole entry): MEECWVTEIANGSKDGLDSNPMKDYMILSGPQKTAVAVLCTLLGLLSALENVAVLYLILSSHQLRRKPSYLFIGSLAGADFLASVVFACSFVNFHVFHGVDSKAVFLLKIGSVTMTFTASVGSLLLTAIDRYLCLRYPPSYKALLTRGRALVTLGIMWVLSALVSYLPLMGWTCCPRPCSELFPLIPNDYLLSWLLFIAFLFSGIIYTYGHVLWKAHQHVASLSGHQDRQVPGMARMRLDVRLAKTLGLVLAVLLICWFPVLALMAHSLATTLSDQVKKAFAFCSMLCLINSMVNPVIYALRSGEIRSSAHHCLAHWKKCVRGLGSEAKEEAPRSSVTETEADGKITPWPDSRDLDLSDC
Outline: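 Displacement of 0.5 nM [3H]CP 55,940 over 0.01 nM-10 μM test compound, measured on human CB2 membranes from stably transfected HEK293 cells. Incubation 90 min at 30 °C in Tris/EDTA/MgCl2/BSA, pH 7.4, then filter-bound radioactivity counted; 10 μM unlabeled CP 55,940 defined nonspecific binding.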

rat CB2 [5] = biological target: T1, rat CB2 (Rattus norvegicus (Rat), UniProt Q9QZN9); assay: rat CB2 radioligand binding assay ([3H]CP 55,940 competition); details: HEK293 membranes, 0.5 nM [3H]CP 55,940; read-out: rat CB2 (Ki)
T1 sequence (Q9QZN9 whole entry): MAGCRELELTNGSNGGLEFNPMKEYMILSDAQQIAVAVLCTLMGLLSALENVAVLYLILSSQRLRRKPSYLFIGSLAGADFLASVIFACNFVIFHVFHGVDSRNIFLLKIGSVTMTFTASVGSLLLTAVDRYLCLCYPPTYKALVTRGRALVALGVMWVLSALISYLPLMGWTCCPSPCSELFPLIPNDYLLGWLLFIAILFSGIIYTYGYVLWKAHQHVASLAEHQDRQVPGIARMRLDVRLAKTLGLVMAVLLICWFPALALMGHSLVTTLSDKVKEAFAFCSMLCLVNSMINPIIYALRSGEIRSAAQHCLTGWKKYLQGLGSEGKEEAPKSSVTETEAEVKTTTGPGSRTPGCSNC
Outline: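 Membranes from HEK293 cells stably expressing rat CB2 (20 μg protein/well) competed with 0.5 nM [3H]CP 55,940 and five displacer concentrations, 45 min at 30° C in Tris/EDTA/MgCl2/BSA buffer pH 7.4. Filtration and scintillation counting; nonspecific binding with 10 μM unlabeled CP 55,940.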

rat CB2 [6] = biological target: T1, rat CB2; assay: CB2 cyclase functional assay (HitHunter cAMP); format: cell-based; details: HEK cells, forskolin 18 μM
Experimental: (§1) The cyclase functional assays were performed using the HitHunter™ cAMP assay kit from DiscoveRx (Fremont, Calif.) according to vendor's protocol. Briefly, HEK cells expressing CB2 or CB1 receptors (rat or human) were detached using cell dissociation buffer (Invitrogen, Carlsbad, Calif.), dispersed and placed in suspension at 10,000 cells per well in 96 well plates prior to the assay. Cell suspensions were incubated at 37° C. for 20 min with variable concentrations of test ligands and or 10 μM CP 55,940-positive control in the presence of a fixed concentration of forskolin (18 μM for rat CB2 and 37 μM for rat CB1) in Dulbescco's phosphate-buffered saline (Invitrogen, Carlsbad, Calif.) supplemented with bovine serum albumin (0.01% final concentration). The reactions were terminated by the addition of lysis buffer and the luminescence was detected following the procedure according to the manufacturer's instructions. EC50 values were calculated using sigmoidal dose-response curve fitting from Prism (GraphPad).

rat CB1 = rat CB1 (Rattus norvegicus (Rat), UniProt P20272); assay: CB1 cyclase functional assay (HitHunter cAMP); format: cell-based; details: HEK cells, forskolin 37 μM; read-out: rCB1 cyclase (EC50)
Experimental: as §1

Compound | Ki (human CB2 receptors) | Ki (rat CB2 [5]) | EC50 (rat CB2 [6]) | EC50 (rat CB1) | other results
CCCCCCC(C)(C)c1cc(OC)c([C@@H]2C=C(CO)[C@@H]3C[C@H]2C3(C)C)c(OC)c1 [HU-308] |  |  |  |  | antinociceptive response (rat): elicits an antinociceptive response
CCCC(C)(C)c1ccc2c(c1)OC(C)(C)[C@@H]1CC=C(C)C[C@@H]21 [JWH-133] |  |  |  |  | effect on β-amyloid-induced microglial activation and neurotoxicity [1]: abrogated β-amyloid-induced microglial activation and neurotoxicity
CN1CCCCC1Cn1cc(C(=O)c2cc([N+](=O)[O-])ccc2I)c2ccccc21 (stereo not drawn) [AM-1241] |  |  |  |  | analgesic efficacy [2]: robust analgesic efficacy
SR144528 |  |  |  |  | effect on osteoclast activity and ovariectomy-induced bone loss (mice): inhibit osteoclast activity and reverse ovariectomy-induced bone loss
COc1ccc2c(c1)c(CCN1CCOCC1)c(C)n2C(=O)c1cccc(Cl)c1Cl [GW405833] |  |  |  |  | efficacy in pain models [3]: efficacious
(−)-Δ^9-Tetrahydrocannabinol [THC] |  |  |  |  | effect on progression of atherosclerotic lesions [4]: slowed the progression of atherosclerotic lesions
CC(C)(C)NOc1ccc(C(F)(F)F)cc1C(=O)/N=c1\sc(C(C)(C)C)nn1CC1CCC1 [Example 165, 2-[(tert-butylamino)oxy]-N-[(2Z)-5-tert-butyl-3-(cyclobutylmethyl)-1,3,4-thiadiazol-2(3H)-ylidene]-5-(trifluoromethyl)benzamide] | 2.8 nM | 0.8 nM | 0.93 nM | 925 nM | 
CCCCn1nc(C(C)(C)C)s/c1=N\C(=O)c1cc(C(F)(F)F)ccc1ONC(C)C [Example 144, N-[(2Z)-3-butyl-5-tert-butyl-1,3,4-thiadiazol-2(3H)-ylidene]-2-[(isopropylamino)oxy]-5-(trifluoromethyl)benzamide] | 0.6 nM | 0.8 nM | 0.22 nM | 415 nM | 
CCCCn1nc(C(C)(C)C)s/c1=N\C(=O)c1cc(C(F)(F)F)ccc1ONC(C)=O [Example 154, 2-[(acetylamino)oxy]-N-[(2Z)-3-butyl-5-tert-butyl-1,3,4-thiadiazol-2(3H)-ylidene]-5-(trifluoromethyl)benzamide] | 1 nM | 1 nM | 1.5 nM | 58 nM | 
